Data as given in article PMC5706701, “Development of a homogenous high-throughput assay for inositol hexakisphosphate kinase 1 activity” (PLoS ONE, 2017).
Where a name gives a salt, the structure may show the parent alone. Read-outs that look alike come from different tables or passages of the source. Blank lines part the entries; values can stand above or below the compound they belong to.

Molecular target: T1, Human IP6K1 (Homo sapiens, UniProt Q92551)
T1 construct: GST (N, cleaved yes); made in house; host or cells: C43 E. coli, pGEX-6P-2
T1 sequence (Q92551 whole entry): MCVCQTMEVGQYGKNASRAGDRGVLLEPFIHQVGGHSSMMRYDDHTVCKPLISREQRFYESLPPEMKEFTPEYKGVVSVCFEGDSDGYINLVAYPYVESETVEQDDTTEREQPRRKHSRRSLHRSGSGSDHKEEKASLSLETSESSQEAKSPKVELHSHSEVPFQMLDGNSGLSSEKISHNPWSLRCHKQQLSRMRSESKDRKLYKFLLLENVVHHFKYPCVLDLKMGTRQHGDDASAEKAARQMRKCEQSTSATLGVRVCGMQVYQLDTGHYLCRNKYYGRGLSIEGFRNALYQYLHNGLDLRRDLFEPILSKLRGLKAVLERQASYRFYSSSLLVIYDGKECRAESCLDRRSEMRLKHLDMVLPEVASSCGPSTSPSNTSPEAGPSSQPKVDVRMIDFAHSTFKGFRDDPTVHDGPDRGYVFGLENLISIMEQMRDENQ
Experiment: IP6K1 high-throughput screen of the Sigma LOPAC (ADP-Glo Max, single point);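 also: final compound concentration 10µM in 5% DMSO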
Format: biochemical

[1] = LOPAC single-point screen, ADP-Glo Max raw signal per well
[2] = LOPAC single-point screen, Z-score against plate average and StDev
[3] = Sigma LOPAC single-point screen, ADP-Glo Max raw signal per well
[4] = Sigma LOPAC single-point screen, Z-score from plate average and StDev
[5] = LOPAC single-point screen, ADP-Glo Max luminescence raw signal per well
[6] = LOPAC single-point screen, Z-score from plate average and StDev
[7] = LOPAC single-point screen, Z-score from raw signal with plate average and StDev
[8] = LOPAC single-point screen, Z-score relative to plate average and StDev

Compound: CN1[C@@H]2CC[C@H]1C[C@@H](OC(c1ccccc1)c1ccccc1N)C2 (some centres unmarked) [Aminobenztropine]
Raw Signal [1]: 58792
Z-score [2]: 0.1548

Raw Signal [3]: 59966
Z-score [4]: 0.9363
Compound: Cc1ccc(Cl)c(Nc2ccccc2C(=O)O)c1Cl [Meclofenamic acid sodium]

Raw Signal [3]: 60020
Z-score [4]: 0.3711
Compound: CC(C)COCC(CN(Cc1ccccc1)c1ccccc1)N1CCCC1 (centres unmarked) [Bepridil hydrochloride]

Raw Signal [1]: 56198
Z-score [2]: 0.03384
Compound: CCCOc1ccccc1-c1nc2nn[nH]c2c(=O)[nH]1 [Zaprinast]

Compound: O=C(O)c1cc([N+](=O)[O-])ccc1NCCCc1ccccc1
Raw Signal: 51963
Z-score: -0.4084

Raw Signal [5]: 67936
Z-score [6]: 1.765
Compound: CN(C)CC[C@@H](c1ccc(Br)cc1)c1ccccn1 [(+)-Brompheniramine maleate]

Raw Signal [3]: 57228
Z-score [4]: 0.4186
Compound: Nc1nc(O)c2ncn(COC(CO)CO)c2n1 [Ganciclovir]

Compound: O=C([O-])/C=C/C(O)c1ccc(Cl)cc1.[Na+] (centres unmarked) [NCS-356]
Raw Signal [3]: 58969
Z-score [4]: 0.7688

Compound: COc1ccc2c(c1)CC[C@@H]1[C@@H]2CC[C@]2(C)[C@@H](NCCCCCCN3C(=O)C=CC3=O)CC[C@@H]12 [U-73122]
Raw Signal [1]: 55186
Z-score [7]: -0.1628

Raw Signal [5]: 49930
Z-score [8]: -0.75
Compound: CCn1cc(C(=O)O)c(=O)c2cc(F)c(N3CCNC(C)C3)c(F)c21 (centres unmarked) [Lomefloxacin hydrochloride]

Raw Signal [5]: 67025
Z-score [6]: 1.605
Compound: COC(=O)C(N)Cc1ccc(Cl)cc1.Cl (racemic)

Compound: NC1(C(=O)O)CCc2cc(C(=O)O)ccc21 (centres unmarked) [AIDA]
Raw Signal [5]: 52578
Z-score [8]: -0.9397

Raw Signal [1]: 56700
Z-score [7]: -0.2137
Compound: CC(NC(C)(C)C)C(=O)c1cccc(Cl)c1 (centres unmarked) [Bupropion hydrochloride]

Compound: Foliosidine
Raw Signal [1]: 53530
Z-score [7]: -0.3325

Raw Signal [3]: 58351
Z-score [4]: 0.6466
Compound: CC1=NS(=O)(=O)c2cc(Cl)ccc2N1 [Diazoxide]

Raw Signal [3]: 58129
Z-score [4]: 0.6015
Compound: CC[N+](C)(C)c1cccc(O)c1 [Edrophonium chloride]

Compound: O=C1Cc2c([nH]c3ccc(Br)cc23)-c2ccccc2N1 [Kenpaullone]
Raw Signal [5]: 65095
Z-score [6]: 1.798

Compound: Cl.Cl.Cl.Ic1ccc(N2CCN(Cc3c[nH]c4ncccc34)CC2)cc1 [L-750,667 trihydrochloride]
Raw Signal [3]: 61468
Z-score [4]: 1.1887

Compound: Ic1ccccc1CNC1C2CCN(CC2)C1C(c1ccccc1)c1ccccc1.O=C(O)C(=O)O [L-703,606 oxalate]
Raw Signal [1]: 52840
Z-score [7]: -0.261

Raw Signal [3]: 61524
Z-score [4]: 0.636
Compound: CC1=C(C(=O)O)N2C(=O)[C@@H](NC(=O)[C@H](N)c3ccccc3)[C@H]2SC1.O [Cephalexin hydrate]

Raw Signal [1]: 53863
Z-score [2]: -0.08914
Compound: Cc1[nH]c(=O)c(C#N)cc1-c1ccncc1 [Milrinone]

Compound: Cl.NC[C@@H]1O[C@H](C23CC4CC(CC(C4)C2)C3)Cc2c1ccc(O)c2O [A-77636 hydrochloride]
Raw Signal [1]: 56453
Z-score [7]: -0.2572

Compound: CCCC(C(=O)OCCN(CC)CC)(c1ccccc1)c1ccccc1.Cl [SKF-525A hydrochloride]
Raw Signal [5]: 51241
Z-score [8]: -0.5297

Compound: Oc1ccc(-c2nc(-c3ccncc3)c(-c3ccc(F)cc3)[nH]2)cc1 [SB 202190]
Raw Signal [1]: 58086
Z-score [2]: 0.03045

Compound: CCC1(c2ccc(N)cc2)CCC(=O)NC1=O (racemic) [(±)-p-Aminoglutethimide]
Raw Signal [1]: 58613
Z-score [2]: 0.1233

Raw Signal [1]: 52080
Z-score [7]: -0.3887
Compound: NS(=O)(=O)c1cccc2c1c([N+](=O)[O-])cc1nc([O-])c([O-])nc12.[Na+].[Na+] [NBQX disodium]

Compound: CC(C)N(CCC(=O)c1ccc2ccccc2c1)Cc1ccccc1.Cl [ZM 39923 hydrochloride]
Raw Signal [1]: 54461
Z-score [2]: 0.01134

Raw Signal [5]: 49635
Z-score [8]: -0.7996
Compound: Oc1cc(O)cc(/C=C/c2ccc(O)c(O)c2)c1 [Piceatannol]

Compound: C1CCc2nnnn2CC1 [Pentylenetetrazole]
Raw Signal [3]: 57450
Z-score [4]: 0.5136

Raw Signal [1]: 54085
Z-score [7]: -0.3767
Compound: C#CCN(C)Cc1ccccc1 [Pargyline hydrochloride]

Compound: C=CCN1C[C@H](C)N([C@H](c2ccc(C(=O)N(CC)CC)cc2)c2cccc(OC)c2)C[C@H]1C [SNC80]
Raw Signal [1]: 54916
Z-score [7]: -0.2152

Compound: O.c1cnc2c(c1)ccc1cccnc12 [1,10-Phenanthroline monohydrate]
Raw Signal [5]: 52659
Z-score [8]: -0.6537

Compound: CCN(CC)C(C)C(=O)N1c2ccccc2Sc2ccccc21.Cl (centres unmarked)
Raw Signal [1]: 55206
Z-score [2]: 0.007914

Compound: CC[N+](C)(CC)CC(=O)Nc1c(C)cccc1C.[Cl-] [Lidocaine N-methyl hydrochloride]
Raw Signal [5]: 51540
Z-score [8]: -0.4795

Raw Signal [1]: 51877
Z-score [7]: -0.4228
Compound: CS(=O)(=O)Nc1ccc([N+](=O)[O-])cc1Oc1ccccc1 [Nimesulide]

Raw Signal [1]: 54365
Z-score [7]: -0.1629
Compound: CC(C)N(CCC(C(N)=O)(c1ccccc1)c1ccccn1)C(C)C (centres unmarked) [Disopyramide phosphate]

Raw Signal [5]: 52424
Z-score [8]: -0.5571
Compound: Cc1cc(N)c2ccccc2[n+]1CCCCCCCCCCCCCC[n+]1c(C)cc(N)c2ccccc21 [Dequalinium analog, C-14 linker]

Compound: CCCn1c(=O)c2[nH]c(-c3ccc(OCC(=O)Nc4ccc(C#N)cc4)cc3)nc2n(CCC)c1=O [MRS 1754]
Raw Signal [5]: 66198
Z-score [6]: 1.983

Raw Signal [5]: 53270
Z-score [8]: -0.8178
Compound: Nc1nc2c(ncn2COCCO)c(=O)[nH]1 [Acyclovir]

Raw Signal: 57175
Z-score: -0.13
Compound: 5-Bromo-2 -deoxyuridine

Compound: COC(=O)C1=CCCN(C)C1 [Arecoline hydrobromide]
Raw Signal [1]: 57110
Z-score [7]: -0.1414

Compound: NCCCC(=O)O [GABA]
Raw Signal [3]: 63549
Z-score [4]: 0.9926

Compound: NC(=O)c1ccc(OCC(O)CN2CC=C(c3ccc(F)cc3)CC2)cc1 (centres unmarked) [Ro 8-4304]
Raw Signal [5]: 63292
Z-score [6]: 1.412

Raw Signal [3]: 60096
Z-score [4]: 0.7912
Compound: C[C@]12C=CC(=O)C=C1CC[C@H]1[C@@H]3C[C@@H](O)[C@](O)(C(=O)CO)[C@@]3(C)C[C@H](O)[C@@]12F [Triamcinolone]

Raw Signal [3]: 59564
Z-score [4]: 0.8688
Compound: CN1C(C(=O)Nc2ccccn2)=C(O)c2ccccc2S1(=O)=O [Piroxicam]

Compound: Br.Br.N=C(N)SCCc1cccc(CCSC(=N)N)c1 [1,3-PBIT dihydrobromide]
Raw Signal [3]: 61855
Z-score [4]: 1.133

Compound: O=S(=O)(c1cccc2c(I)cccc12)N1CCCNCC1 [ML-7]
Raw Signal [5]: 65221
Z-score [6]: 1.8193

Compound: Cc1ncc(CNC(=O)N(CCCl)N=O)c(N)n1 [Nimustine hydrochloride]
Raw Signal [1]: 54692
Z-score [2]: 0.05015

Raw Signal [1]: 53966
Z-score [2]: -0.07183
Compound: N#Cc1c(-c2ccccc2)no[n+]1[O-] [4-Phenyl-3-furoxancarbonitrile]

Raw Signal [3]: 56948
Z-score [4]: 0.3617
Compound: COCCCC/C(=N\OCCN)c1ccc(C(F)(F)F)cc1 [Fluvoxamine maleate]

Raw Signal [5]: 51451
Z-score [8]: -0.4944
Compound: CN1CCN2c3ccccc3Cc3ccccc3C2C1 (centres unmarked) [Mianserin hydrochloride]

Raw Signal [3]: 61241
Z-score [4]: 1.0136
Compound: O=C1c2c(O)cc(O)cc2OC(c2ccc(O)c(O)c2)C1O (racemic) [(±)-Taxifolin]

Raw Signal [1]: 53223
Z-score [7]: -0.3948
Compound: O=c1c(-c2ccc(O)cc2)coc2cc(O)cc(O)c12 [Genistein]

Raw Signal [5]: 43363
Z-score [8]: -2.397
Compound: N[C@@H](Cc1ccc(O)c(O)c1)C(=O)O [L-3,4-Dihydroxyphenylalanine]

Compound: COc1ccc(CNC(=O)/C=C/c2ccc3[nH]cc(CCN(C)C)c3c2)cc1 [GR 4661]
Raw Signal [5]: 54448
Z-score [8]: -0.6103

Raw Signal [1]: 54369
Z-score [7]: -0.3215
Compound: COc1cc2c(cc1OC)-c1c/c(=N\c3c(C)cc(C)cc3C)n(C)c(=O)n1CC2 [Trequinsin hydrochloride]

Compound: N=C1Sc2ccccc2C2=NCCCN12 [PD 404,182]
Raw Signal [1]: 56268
Z-score [2]: 0.315

Compound: R(-)-SCH-12679 maleate
Raw Signal [5]: 53479
Z-score [8]: -0.4944

Compound: NC(=S)c1ccc[n+]([C@@H]2O[C@@H](COP(=O)([O-])OP(=O)(O)OC[C@H]3O[C@@H](n4cnc5c(N)ncnc54)C(OP(=O)([O-])O)[C@H]3O)C(O)C2O)c1.[Na+] (some centres unmarked) [Thio-NADP sodium]
Raw Signal [1]: 56703
Z-score [2]: 0.132

Raw Signal [3]: 58493
Z-score [4]: 0.4797
Compound: CC(=O)O[C@H]1C(=O)[C@@]2(C)[C@H]([C@H](OC(=O)c3ccccc3)[C@]3(O)C[C@H](OC(=O)[C@H](O)[C@@H](NC(=O)c4ccccc4)c4ccccc4)C(C)=C1C3(C)C)[C@]1(OC(C)=O)CO[C@@H]1C[C@@H]2O [Taxol]

Raw Signal [5]: 50551
Z-score [8]: -1.297
Compound: NC(CO)C(=O)NNCc1ccc(O)c(O)c1O (centres unmarked) [Benserazide hydrochloride]

Raw Signal [3]: 58265
Z-score [4]: 0.4354
Compound: O=c1ccn(C2OC(COP(=O)(O)OP(=O)([O-])O)C(O)C2O)c(=O)[nH]1.[Na+] (centres unmarked) [Uridine 5 -diphosphate sodium]

Raw Signal [1]: 54872
Z-score [7]: -0.2238
Compound: N#C/C(=C\c1ccc(O)c(O)c1)C(=O)Nc1ccccc1 [Tyrphostin AG 494]

Raw Signal [3]: 58161
Z-score [4]: 0.633
Compound: c1ccc2c(c1)OCC(C1=NCCN1)O2 (centres unmarked) [Idazoxan hydrochloride]
